Reference: US4737519A, “Substituted naphthalenes, indoles, benzofurans, and benzothiophenes as lipoxygenase inhibitors” (The Upjohn Company, priority 1986, dated 1988)
Blank lines part the entries; values can stand above or below the molecule they belong to.

How the values were obtained:
[1] = system: SRS-A; assay: SRS-A synthesis inhibition in rat mononuclear cells incubated with cysteine and challenged with calcium ionophore; assay type: cell-based; settings: 10 micrograms/ml
Method: This test is conducted in rat mononuclear cells incubated in the presence of cysteine and challenged with a calcium ionophore (which induces SRS-A formation). Among the nonamino compounds of this invention, in this test system, 1-acetoxy-2-n-butyl-4-methoxynaphthalene (Example 3) and 1-acetoxy-2,3-diethyl-4-methoxynaphthalene (Example 4) are preferred.

[2] = system: lipoxygenase; assay: lipoxygenase inhibition, oxygen uptake of washed human platelets with arachidonic acid; assay type: cell-based; settings: for inhibition of 5-HETE production: 10 μm
Method: The compounds of the present invention were also tested for lipoxygenase inhibition. Arachidonic acid is added to washed human platelets and the oxygen uptake is measured using oxygraph cells. A decrease of oxygen uptake versus the control cell indicates inhibition of lipoxygenase. For a full description of the procedure see, Wallach, et al., Biochim. Biophys. Acta. 231: 445 (1976).

[3] = system: mucous secretion; assay: canine tracheal mucous secretion (hillock count); assay type: in vivo, mongrel dogs
Method: Mongrel dogs (weight 18-35 kg) were anesthetized with a mixture of chloralose (100 mg/kg) and urethane (500 mg/kg) via intravenous injection. The animals were secured to a surgery table, ventral side up, and the neck and inner right hind limb were shaved. A ventral midline incision was made in the neck using a Bovie CSVII electrosurgical unit, starting from the papillae (interramal) to the clavicle thus exposing the trachea. An endotracheal tube was secured into the lower trachea. The animals were then connected via the endotracheal tube to a Harvard respirator (Model 607A) that delivered room air at a constant tidal volume and frequency. Two polyethylene catheters were connected to the endotracheal tube, and one was connected to a medical gas analyzer (Beckman, Model LB-2) that continuously measured the carbon dioxide (CO2) content of the expired air for determination of end tidal CO2. The other was connected to a pressure transducer (Statham, Model PMI 131TC+2.5-350) for the measurement of airway press ure.
A second incision made in the inner right hind limb to expose the femoral artery and vein was made for the catheterization of these large vessels. A polyethylene catheter was tied into the artery and connected to a pressure transducer (Statham, Model P231D) for the measurement of blood pressure. This catheter also allowed for samples of arterial blood to be collected for measurements of blood gas tension using a blood gas analyser (Corning, Model 175). Another polyethylene catheter was tied into the femoral vein which was used for injecting additional anesthetic and paralyzing drugs. Gallamine triethiodide (20-40 mg) was used to paralyze the respiratory muscles and a single injection of sodium bicarbonate 7.5% (0.5 mg/kg) in conjunction with a continuous i.v. drip of 5% dextrose in 0.9% saline helped to maintain fluid balance. All physiological measurements were recorded and monitored on a polygraph (Grass instruments, Model 7D). Once the femoral cutdown was completed, surgery on the neck region resumed. The carotid artery was exposed and the "knuckle" (a portion of the carotid which bisects to supply blood flow to the trachea and neck muscles) was located. A small polyethylene catheter was then inserted into the muscular branch of the cranial thyroid artery (CTA). This allowed for close arterial injection of experimental agents. The strap muscles were removed and the mucosal surface of the trachea exposed by cutting along the anterior midline of the upper two-thirds of the extrathoracic trachea and pulling the cut edges widely apart. The exposed mucosa was checked for proper canulation by blanching and appropriate adjustments of the canula into the CTA were made until blanching was achieved.
(§1) Isometric tension measurements of the trachealis muscle were recorded by suturing a rigid, plastic bar to the (15) cartilaginous rings of the cut edges of the trachea, and connecting one side to a fixed restraint and the contralateral side to a force displacement transducer (Grass, Model FT 03C). An initial tension of 25-30 g/cm of trachea was applied to the muscle, and it was allowed to stabilize for 45 min. An initial zero tension point was determined before agonists were injected into the CTA, and the zero was readjusted after agonist injections.
To visualize secretions coming from the submucosal gland duct openings of the trachea, powdered tantalum, an inert metal (2-5 microns in size) was sprayed on the trachea until it formed a uniform layer over the mucosal surface. The tantalum itself did nothing to normal secretion, but prevented the normal ciliary dispersion of secretions from the gland duct openings; these secretions, therefore, caused elevations ("hillocks") in the tantalum layer. The number of hillocks formed in a 1.2 cm^2 field, 1-2 cm from the larynx, were counted and their images were recorded with a video camera (Hitachi CCTV, Model HV-17TU) mounted on a dissecting microscrope (Zeiss Ompi-1) with a beam splitter. […]

[4] = system: deep vein thrombosis; assay: deep vein thrombosis: jugular vein stasis in cats, scanning electron microscopy; assay type: in vivo, domestic short hair cats
Method: Nine adult domestic short hair cats weighing 4.5-5 kg were anesthetized with sodium pentabarbital (25-30 mg/kg i.v.). The neck area was prepared for a sterile cut down procedure and the jugular veins were exposed. After exposure of the veins each animal was injected with epsilon amino caproic acid (eaca) to inhibit plasminogen activation (2.5 grams i.v. in Tyrode's solution). […] Six of the cats were also treated with 2,3-diethyl-4-methoxy-1-naphthalenol, acetate. Three of the cats were given 1 mg/kg i.v. and 3 of the cats were treated with 5 mg/kg i.v. prior to venous occlusion. The jugular veins were carefully dissected free of surrounding connective tissue and the vein was ligated at the thoracic inlet with 3-0 dexon. The skin incision was closed and the animals were maintained in surgical anesthesia for 2 hours. At the end of the 2 hour waiting period, the jugular veins were exposed again. A 25 gauge butterfly needle was positioned into the lumen and blood was flushed out of the vein with heparinized Tyrode's solution (1U heparin/ml). The veins were tied off and removed under physiologic pressure. The vessels were immediately immersed in a 2.5% glutaraldehyde solution prepared in Tyrode's solution for fixation. The veins were fixed overnight at 5 degrees centigrade, postfixed in 1% osmium tetroxide overnight, dehydrated in ethanol and substituted by amyl acetate. All veins were critical point dried from carbon dioxide using a Denton DCP-1 critical point drying apparatus. The veins were mounted on stubas, gold coated on a Denton DV-502 modified vacuum evaporator and examined on a Cambridge Stereoscan 150 scanning electron microscope.
Two hours of jugular vein stasis following the trauma of dissection caused massive white cell adhesion to and migration under the venous endothelium of non-treated cats and produced sloughing of the endothelium and exposure of the basement membrane. This damage was sufficient to initiate thrombosis. Many of the exposed areas of basement membrane had adherent platelets. The platelets were adherent as monolayers or as aggregates. In some areas fibrin was found deposited on the endothelium or exposed basement membrane. Leukocytes were occasionally associated with the fibrin.

[5] = system: tracheal mucus velocity; settings: given prior to antigen challenge, patients with a history of bronchial asthma; cited from earlier work
[6] = system: human airways; settings: in vitro; cited from earlier work
[7] = system: canine tracheas; settings: in vivo; cited from earlier work
[8] = system: mucus release; settings: in vivo in the cat; cited from earlier work
[9] = system: trachealis muscle; assay: isometric tension of the trachealis muscle in dogs; assay type: in vivo, mongrel dogs; settings: 1.0 mg in the CTA
Method: as §1
When drug activity was assessed with arachidonic acid induced secretion, the animals were pretreated with indomethacin (Indo) (5 mg/kg) for at least 30 minutes. Before any drugs were given, however, the appropriate controls for arachidonate and indomethacin were run. The standard procedure for this was to determine the effect of (1) arachidonate alone, (2) indomethacin alone, and (3) indomethacin/arachidonate combination on normal baseline secretion. Once these control values were acquired, the drug was given. An experimental drug given in the presence of the indomethacin/arachidonate combination helps to characterize that portion of the response due to lipoxygenase products. […] Hillocks were counted for 2-3 minutes immediately after the arachidonate was given.

[10] = 1.0 mg/kg oral, predose time 3.5 hr, n=2, ↑ indicates stimulation
[11] = 5 mg/kg oral, predose time 3.5 hr, n=2
[12] = 1.0%, inhalation, n=6, ***p<0.0001

IC50 ([2]; lipoxygenase system, washed human platelets): ~100 nM
SMILES: CCCCc1cc(OC)c2ccccc2c1OC(C)=O [Example 3, 2-Butyl-4-methoxy-1-naphthalenol, acetate]
inhibition at 10 µg/mL [1]: 100%
inhibition of 5-HETE production [2]: completely inhibiting
% Inhibition of Agonist Response, Indo/AA ([3]; 0.001%, inhalation, n=4, **p<0.005): 100%
% Inhibition of Agonist Response, Hypoxia ([3]; 0.001%, inhalation, n=4, *p<0.05): 87%
% Inhibition of Agonist Response, Baseline: stimulation (.uparw.) ([3]; 0.001%, inhalation, n=4, ↑ indicates stimulation): 24%
% Inhibition of Agonist Response, Indo/AA ([3]; 1.0 mg/kg oral, predose time 3.5 hr, n=2): 50%
% Inhibition of Agonist Response, Baseline: stimulation (.uparw.) [3, 10]: 6%
% Inhibition of Agonist Response, Hypoxia: stimulation (.uparw.) [3, 10]: 11%
% Inhibition of Agonist Response, Indo/AA ([3]; 1.0 mg/kg oral, predose time 5.0 hr, n=2, *p<0.05): 62%
% Inhibition of Agonist Response, Hypoxia [3, 11]: 49%
% Inhibition of Agonist Response, Indo/AA [3, 11]: 69%
% Inhibition of Agonist Response, Baseline: stimulation (.uparw.) ([3]; 5 mg/kg oral, predose time 3.5 hr, n=2, ↑ indicates stimulation): 30%
% Inhibition of Agonist Response, Indo/AA ([3]; 5 mg/kg oral, predose time 4.5 hr, n=2): 95%
% Inhibition of Agonist Response, Baseline ([3]; 0.01%, inhalation, n=5): 19%
% Inhibition of Agonist Response, Hypoxia ([3]; 0.01%, inhalation, n=5): 91%
% Inhibition of Agonist Response, Indo/AA ([3]; 0.01%, inhalation, n=5, **p<0.005): 100%
% Inhibition of Agonist Response, Hypoxia ([3]; 10 mg/kg oral, predose time 3 hr, n=2): 94%
% Inhibition of Agonist Response, Indo/AA ([3]; 10 mg/kg oral, predose time 3 hr, n=2, *p<0.05): 100%
% Inhibition of Agonist Response, Baseline: stimulation (.uparw.) ([3]; 10 mg/kg oral, predose time 3 hr, n=2, ↑ indicates stimulation): 5%
% Inhibition of Agonist Response, Indo/AA ([3]; 10 mg/kg oral, predose time 4 hr, n=2, *p<0.05): 100%
% Inhibition of Agonist Response, Indo/AA ([3]; 10 mg/kg oral, predose time 5 hr, n=2, *p<0.05): 100%
% Inhibition of Agonist Response, Baseline ([3]; 0.1%, inhalation, n=4): 23%
% Inhibition of Agonist Response, Indo/AA ([3]; 0.1%, inhalation, n=4, **p<0.005): 100%
% Inhibition of Agonist Response, Hypoxia ([3]; 0.1%, inhalation, n=4, *p<0.05): 96%
% Inhibition of Agonist Response, Baseline ([3]; 1.0%, inhalation, n=6): 6%
% Inhibition of Agonist Response, Hypoxia [3, 12]: 100%
% Inhibition of Agonist Response, Indo/AA [3, 12]: 100%
effect on baseline secretion and on enhanced mucus secretion due to hypoxia or arachidonic acid ([3]; mongrel dog model): effective in blocking baseline secretion in a dose dependent fashion as well as enhanced mucus secretion due to hypoxia or arachidonic acid administration

SMILES: CCc1c(CC)c(OC(C)=O)c2ccccc2c1OC [Example 4, 2,3-Diethyl-4-methoxy-1-naphthalenol, acetate]
inhibition at 10 µg/mL [1]: 95%
inhibition of 5-HETE production [2]: completely inhibiting
areas with detached endothelial cells or exposed basement membrane ([4]; 1 mg/kg i.v.): Few areas with detached endothelial cells or exposed basement membrane
leukocyte adhesion or migration ([4]; 1 mg/kg i.v.): did not reduce leukocyte adhesion or migration
leukocyte release of hydrolytic enzymes and production of superoxides ([4]; 1 mg/kg i.v.): apparently inhibited
areas of adherent leukocytes ([4]; 5 mg/kg i.v.): only patchy areas of adherent leukocytes were observed
fibrin deposition ([4]; 5 mg/kg i.v.): Only occasional small areas of fibrin deposition
inhibitory effect on leukocyte mediated damage ([4]; 5 mg/kg i.v., compared with 1 mg/kg): even greater inhibitory effect on leukocyte mediated damage
numbers of adhering and migrating leukocytes ([4]; 5 mg/kg i.v., compared with control or 1 mg/kg group): appeared to be less
vascular surface with intact endothelial cell cover and few adherent leukocytes ([4]; 5 mg/kg i.v., with the exception of one vein): approximately half or more of the vascular surface
effect on the vascular changes ([4]; 1 and 5 mg/kg i.v. prior to venous occlusion): dose dependent effect on the vascular changes

SMILES: CCCc1c(OCC(O)COc2ccc3c(=O)cc(C(=O)O)oc3c2CCC)ccc(C(C)=O)c1O (stereo not shown) [FPL 55712]
reversing the tracheal mucus velocity [5]: effective in reversing the tracheal mucus velocity

SMILES: CCCCC/C=C\C\C=C/C=C/C=C/[C@@H](SC[C@H](NC(=O)CC[C@H](N)C(=O)O)C(=O)NCC(=O)O)[C@@H](O)CCCC(=O)O [LTC4, leukotriene C4]
release of mucus from human airways [6]: increase the release of mucus
release of mucus from canine tracheas [7]: increase the release of mucus
stimulating mucus release [8]: effective in stimulating mucus release in vivo in the cat

SMILES: CCCCC/C=C\C\C=C/C=C/C=C/[C@@H](SC[C@H](N)C(=O)NCC(=O)O)[C@@H](O)CCCC(=O)O [LTD4, leukotriene D4]
release of mucus from human airways [6]: increase the release of mucus
release of mucus from canine tracheas [7]: increase the release of mucus

SMILES: CCCCC/C=C\C/C=C\C/C=C\C/C=C\CCCC(=O)O [arachidonate, arachidonic acid]
release of mucus from human airways [6]: release mucus from human airway
effect on the trachealis muscle [9]: slight stimulation followed by relaxation of the trachealis muscle
effect on mucus secretion ([3]; 1.0 mg in the CTA): stimulates mucus secretion
